{
  "source": "paper doi:10.1101/2024.08.13.607785v1",
  "about": "(biorxiv, 2024)",
  "assay_in_all_cases": "biochemical",
  "key": {"[1]": {"target": "T1, Cyclin-dependent kinase 1 ; CDK1 ; P06493 (Homo sapiens, UniProt P06493)", "T1 sequence (P06493 whole entry, one chain of several)": "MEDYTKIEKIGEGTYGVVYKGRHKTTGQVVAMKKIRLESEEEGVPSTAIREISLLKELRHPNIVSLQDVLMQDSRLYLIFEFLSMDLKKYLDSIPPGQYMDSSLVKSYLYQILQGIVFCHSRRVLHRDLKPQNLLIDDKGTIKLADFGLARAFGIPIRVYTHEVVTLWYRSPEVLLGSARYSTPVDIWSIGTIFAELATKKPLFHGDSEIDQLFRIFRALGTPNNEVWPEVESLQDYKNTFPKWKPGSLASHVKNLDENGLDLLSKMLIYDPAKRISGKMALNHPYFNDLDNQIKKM", "parameters": "species or system mixed lysate of K562, MV4-11, THP-1, NCI-H1155"}, "[2]": {"target": "T2, Cyclin-dependent kinase 10 ; CDK10 ; Q15131 (Homo sapiens, UniProt Q15131)", "T2 sequence (Q15131 whole entry, one chain of several)": "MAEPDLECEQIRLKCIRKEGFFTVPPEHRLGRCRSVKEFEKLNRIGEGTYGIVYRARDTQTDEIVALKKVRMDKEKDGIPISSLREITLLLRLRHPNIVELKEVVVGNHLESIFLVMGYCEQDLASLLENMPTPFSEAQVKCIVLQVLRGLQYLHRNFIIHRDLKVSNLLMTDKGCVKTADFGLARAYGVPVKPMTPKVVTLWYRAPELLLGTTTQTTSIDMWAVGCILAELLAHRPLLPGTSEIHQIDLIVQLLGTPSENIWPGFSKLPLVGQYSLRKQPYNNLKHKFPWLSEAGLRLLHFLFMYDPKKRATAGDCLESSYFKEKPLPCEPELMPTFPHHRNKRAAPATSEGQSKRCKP", "parameters": "species or system mixed lysate of K562, MV4-11, THP-1, NCI-H1155"}, "[3]": {"target": "T3, Cyclin-dependent kinase 16 ; CDK16 ; Q00536 (Homo sapiens, UniProt Q00536)", "T3 sequence (Q00536 whole entry, one chain of several)": "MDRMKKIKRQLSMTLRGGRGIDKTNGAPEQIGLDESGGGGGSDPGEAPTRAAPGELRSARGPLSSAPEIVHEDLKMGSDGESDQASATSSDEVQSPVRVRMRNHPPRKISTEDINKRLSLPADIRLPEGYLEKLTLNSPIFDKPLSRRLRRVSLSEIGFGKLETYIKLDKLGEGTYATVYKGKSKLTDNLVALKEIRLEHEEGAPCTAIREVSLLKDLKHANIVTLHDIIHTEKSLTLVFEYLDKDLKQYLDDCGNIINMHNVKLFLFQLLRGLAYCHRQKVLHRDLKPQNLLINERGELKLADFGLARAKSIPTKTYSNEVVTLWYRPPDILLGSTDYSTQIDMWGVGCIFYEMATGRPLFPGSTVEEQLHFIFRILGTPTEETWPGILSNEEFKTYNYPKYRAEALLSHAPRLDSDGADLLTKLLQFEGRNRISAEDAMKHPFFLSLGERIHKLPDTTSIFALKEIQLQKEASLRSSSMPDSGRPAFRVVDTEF", "parameters": "species or system mixed lysate of K562, MV4-11, THP-1, NCI-H1155"}, "[4]": {"target": "Cyclin-dependent kinase 2 ; CDK2 ; P24941 (Homo sapiens, UniProt P24941)", "parameters": "species or system mixed lysate of K562, MV4-11, THP-1, NCI-H1155"}, "[5]": {"target": "Cyclin-dependent kinase 6 ; CDK6 ; Q00534 (Homo sapiens, UniProt Q00534)", "sequence (Q00534 whole entry, one chain of several)": "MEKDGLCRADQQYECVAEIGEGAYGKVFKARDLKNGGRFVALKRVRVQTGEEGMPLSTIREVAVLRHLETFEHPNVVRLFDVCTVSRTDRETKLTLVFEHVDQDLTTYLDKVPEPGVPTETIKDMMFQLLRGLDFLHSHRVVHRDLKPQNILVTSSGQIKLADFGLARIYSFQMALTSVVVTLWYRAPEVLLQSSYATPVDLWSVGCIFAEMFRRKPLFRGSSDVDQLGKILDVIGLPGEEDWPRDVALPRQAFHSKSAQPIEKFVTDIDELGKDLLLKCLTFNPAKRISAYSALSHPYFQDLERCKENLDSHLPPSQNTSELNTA", "parameters": "species or system mixed lysate of K562, MV4-11, THP-1, NCI-H1155"}, "[6]": {"target": "T4, Cyclin-dependent kinase 7 ; CDK7 ; P50613 (Homo sapiens, UniProt P50613)", "T4 sequence (P50613 whole entry, one chain of several)": "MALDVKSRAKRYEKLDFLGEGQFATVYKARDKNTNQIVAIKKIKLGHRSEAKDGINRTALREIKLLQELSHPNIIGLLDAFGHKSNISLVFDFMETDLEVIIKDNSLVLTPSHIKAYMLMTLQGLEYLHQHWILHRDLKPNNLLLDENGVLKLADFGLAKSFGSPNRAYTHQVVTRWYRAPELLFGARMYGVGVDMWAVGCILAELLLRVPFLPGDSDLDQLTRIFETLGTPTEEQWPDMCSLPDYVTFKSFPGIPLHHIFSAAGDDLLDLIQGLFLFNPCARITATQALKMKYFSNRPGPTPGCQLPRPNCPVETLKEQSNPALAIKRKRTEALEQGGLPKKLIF", "parameters": "species or system mixed lysate of K562, MV4-11, THP-1, NCI-H1155"}, "[7]": {"target": "T5, Discoidin domain-containing receptor 2 ; DDR2 ; Q16832 (Homo sapiens, UniProt Q16832)", "T5 sequence (Q16832 1-855)": "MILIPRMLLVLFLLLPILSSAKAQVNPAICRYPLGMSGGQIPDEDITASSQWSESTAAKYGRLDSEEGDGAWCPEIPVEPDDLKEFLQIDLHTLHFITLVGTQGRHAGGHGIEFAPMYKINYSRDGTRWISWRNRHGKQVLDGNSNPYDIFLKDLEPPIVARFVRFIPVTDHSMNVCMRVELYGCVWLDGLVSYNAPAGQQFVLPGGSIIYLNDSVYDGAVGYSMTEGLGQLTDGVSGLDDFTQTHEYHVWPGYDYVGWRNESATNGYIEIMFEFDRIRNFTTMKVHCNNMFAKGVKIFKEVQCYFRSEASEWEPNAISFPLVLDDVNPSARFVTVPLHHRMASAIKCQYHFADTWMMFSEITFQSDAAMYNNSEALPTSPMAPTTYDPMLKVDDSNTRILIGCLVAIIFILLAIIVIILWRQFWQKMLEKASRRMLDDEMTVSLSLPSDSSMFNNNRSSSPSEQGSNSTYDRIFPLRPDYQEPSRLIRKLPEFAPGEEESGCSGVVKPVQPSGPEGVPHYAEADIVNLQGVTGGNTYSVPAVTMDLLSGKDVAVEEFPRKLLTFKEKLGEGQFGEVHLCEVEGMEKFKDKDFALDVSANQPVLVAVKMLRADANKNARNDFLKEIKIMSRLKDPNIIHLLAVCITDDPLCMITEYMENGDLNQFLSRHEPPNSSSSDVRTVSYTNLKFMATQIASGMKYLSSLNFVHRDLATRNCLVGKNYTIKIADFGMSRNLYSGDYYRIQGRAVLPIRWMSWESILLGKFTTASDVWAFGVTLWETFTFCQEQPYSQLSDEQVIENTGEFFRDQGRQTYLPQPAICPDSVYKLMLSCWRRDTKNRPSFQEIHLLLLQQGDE", "parameters": "species or system mixed lysate of K562, MV4-11, THP-1, NCI-H1155"}, "[8]": {"target": "Epithelial discoidin domain-containing receptor 1 ; DDR1 ; Q08345 (Homo sapiens, UniProt Q08345)", "sequence (Q08345 whole entry, the tested form may be a part)": "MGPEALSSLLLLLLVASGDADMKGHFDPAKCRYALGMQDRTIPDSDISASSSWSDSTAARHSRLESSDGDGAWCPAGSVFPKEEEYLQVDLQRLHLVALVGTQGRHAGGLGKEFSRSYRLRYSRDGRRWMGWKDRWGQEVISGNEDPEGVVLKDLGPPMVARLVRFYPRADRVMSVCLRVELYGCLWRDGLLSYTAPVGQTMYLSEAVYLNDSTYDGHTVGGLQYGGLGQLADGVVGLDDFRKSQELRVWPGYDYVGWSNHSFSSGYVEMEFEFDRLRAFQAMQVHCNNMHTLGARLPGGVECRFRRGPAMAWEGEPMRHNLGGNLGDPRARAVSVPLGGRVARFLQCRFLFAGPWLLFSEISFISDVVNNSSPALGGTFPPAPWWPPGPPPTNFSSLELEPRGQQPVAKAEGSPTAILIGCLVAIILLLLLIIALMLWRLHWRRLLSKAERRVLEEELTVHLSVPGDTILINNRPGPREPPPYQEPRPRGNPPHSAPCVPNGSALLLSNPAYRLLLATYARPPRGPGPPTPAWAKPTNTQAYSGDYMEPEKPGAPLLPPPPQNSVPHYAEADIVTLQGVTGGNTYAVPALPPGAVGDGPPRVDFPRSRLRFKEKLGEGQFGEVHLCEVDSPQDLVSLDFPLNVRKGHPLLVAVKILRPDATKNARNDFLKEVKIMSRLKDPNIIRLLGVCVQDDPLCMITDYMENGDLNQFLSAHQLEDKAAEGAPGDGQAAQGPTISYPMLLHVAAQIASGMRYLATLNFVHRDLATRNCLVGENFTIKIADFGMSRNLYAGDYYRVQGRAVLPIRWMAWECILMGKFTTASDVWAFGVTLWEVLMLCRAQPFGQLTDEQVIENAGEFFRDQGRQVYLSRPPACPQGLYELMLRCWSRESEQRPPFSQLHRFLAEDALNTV", "parameters": "species or system mixed lysate of K562, MV4-11, THP-1, NCI-H1155"}, "[9]": {"target": "Mast/stem cell growth factor receptor Kit ; KIT ; P10721 (Homo sapiens, UniProt P10721)", "sequence (P10721 whole entry, one chain of several)": "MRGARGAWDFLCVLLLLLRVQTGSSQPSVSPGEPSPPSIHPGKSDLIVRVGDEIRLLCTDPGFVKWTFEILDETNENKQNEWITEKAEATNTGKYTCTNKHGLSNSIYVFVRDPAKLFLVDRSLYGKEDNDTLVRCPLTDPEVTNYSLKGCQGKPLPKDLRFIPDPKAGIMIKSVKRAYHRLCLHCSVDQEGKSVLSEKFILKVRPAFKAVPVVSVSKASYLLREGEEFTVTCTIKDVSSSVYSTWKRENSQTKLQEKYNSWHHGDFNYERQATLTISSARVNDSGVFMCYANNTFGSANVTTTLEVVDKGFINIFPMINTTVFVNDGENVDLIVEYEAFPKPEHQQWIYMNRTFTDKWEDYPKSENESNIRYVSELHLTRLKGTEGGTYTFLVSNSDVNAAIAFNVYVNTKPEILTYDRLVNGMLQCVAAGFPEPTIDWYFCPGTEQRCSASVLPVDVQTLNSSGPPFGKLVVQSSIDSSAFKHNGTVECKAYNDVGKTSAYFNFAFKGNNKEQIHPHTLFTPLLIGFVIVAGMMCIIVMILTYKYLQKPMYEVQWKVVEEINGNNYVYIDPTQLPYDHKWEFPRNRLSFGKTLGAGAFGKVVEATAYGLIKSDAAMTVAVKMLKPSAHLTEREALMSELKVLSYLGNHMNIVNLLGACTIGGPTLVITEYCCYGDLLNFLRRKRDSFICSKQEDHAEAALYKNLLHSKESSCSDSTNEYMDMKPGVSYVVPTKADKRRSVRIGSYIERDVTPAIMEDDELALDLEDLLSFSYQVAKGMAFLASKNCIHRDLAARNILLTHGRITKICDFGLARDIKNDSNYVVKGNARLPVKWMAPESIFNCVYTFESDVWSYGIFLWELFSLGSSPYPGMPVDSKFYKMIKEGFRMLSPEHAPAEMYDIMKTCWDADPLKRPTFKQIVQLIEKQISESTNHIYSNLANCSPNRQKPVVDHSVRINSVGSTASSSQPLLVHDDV", "parameters": "species or system mixed lysate of K562, MV4-11, THP-1, NCI-H1155"}, "[10]": {"target": "Calcium/calmodulin-dependent protein kinase kinase 2 ; CAMKK2 ; Q96RR4 (Homo sapiens, UniProt Q96RR4)", "parameters": "species or system human cell line lysate"}, "[11]": {"target": "Cyclin-dependent kinase 12 ; CDK12 ; Q9NYV4 (Homo sapiens, UniProt Q9NYV4)", "parameters": "species or system human cell line lysate"}, "[12]": {"target": "T3, Cyclin-dependent kinase 16 ; CDK16 ; Q00536", "parameters": "species or system human cell line lysate"}, "[13]": {"target": "High affinity nerve growth factor receptor ; NTRK1 ; P04629 (Homo sapiens, UniProt P04629)", "sequence (P04629 whole entry)": "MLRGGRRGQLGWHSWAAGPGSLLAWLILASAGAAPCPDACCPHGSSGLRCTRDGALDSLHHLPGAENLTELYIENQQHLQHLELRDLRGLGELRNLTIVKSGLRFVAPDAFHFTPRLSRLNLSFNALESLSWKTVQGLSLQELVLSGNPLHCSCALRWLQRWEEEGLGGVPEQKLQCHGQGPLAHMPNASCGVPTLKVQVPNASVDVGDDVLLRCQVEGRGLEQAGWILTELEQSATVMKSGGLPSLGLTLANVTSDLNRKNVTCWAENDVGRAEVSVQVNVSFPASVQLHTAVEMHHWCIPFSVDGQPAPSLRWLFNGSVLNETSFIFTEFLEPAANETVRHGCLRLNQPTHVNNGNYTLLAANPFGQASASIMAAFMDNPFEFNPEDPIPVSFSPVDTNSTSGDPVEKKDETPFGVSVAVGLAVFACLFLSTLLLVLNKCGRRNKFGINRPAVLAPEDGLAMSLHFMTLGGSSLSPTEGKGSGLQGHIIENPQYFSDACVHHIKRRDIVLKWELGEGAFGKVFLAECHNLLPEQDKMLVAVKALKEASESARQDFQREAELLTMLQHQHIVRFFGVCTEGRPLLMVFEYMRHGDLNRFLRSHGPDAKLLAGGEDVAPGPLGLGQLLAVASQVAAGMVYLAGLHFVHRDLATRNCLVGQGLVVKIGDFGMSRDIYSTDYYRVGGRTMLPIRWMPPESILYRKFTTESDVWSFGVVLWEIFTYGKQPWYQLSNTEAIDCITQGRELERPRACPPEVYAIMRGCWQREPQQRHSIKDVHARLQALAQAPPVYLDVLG", "parameters": "species or system human cell line lysate"}, "[14]": {"target": "T1, Cyclin-dependent kinase 1 ; CDK1 ; P06493", "parameters": "species or system human cell line lysate"}, "[15]": {"target": "T2, Cyclin-dependent kinase 10 ; CDK10 ; Q15131", "parameters": "species or system human cell line lysate"}, "[16]": {"target": "T4, Cyclin-dependent kinase 7 ; CDK7 ; P50613", "parameters": "species or system human cell line lysate"}, "[17]": {"details": "read-out: BAY-1143572 (10 µM) / %Intensity relative to DMSO"}, "[18]": {"details": "read-out: BAY-1251152 (10 µM) / %Intensity relative to DMSO"}},
  "note": "Read-outs that look alike come from different tables or passages of the source.",
  "data": [
    {"smiles": "COc1cc(F)ccc1-c1ncnc(Nc2cccc(C[S@](C)(=N)=O)c2)n1", "note": "[BAY-1143572]", "values": [
      {"measurement": "remaining activity at 10 µM", "setting": "[1]; [17]", "result": 99.5, "unit": "%"},
      {"measurement": "remaining activity at 10 µM", "setting": "[2]; [17]", "result": 29.6, "unit": "%"},
      {"measurement": "remaining activity at 10 µM", "setting": "[3]; [17]", "result": 58.1, "unit": "%"},
      {"measurement": "remaining activity at 10 µM", "setting": "[4]; [17]", "result": 31.4, "unit": "%"},
      {"measurement": "remaining activity at 10 µM", "setting": "[5]; [17]", "result": 94.2, "unit": "%"},
      {"measurement": "remaining activity at 10 µM", "setting": "[6]; [17]", "result": 117, "unit": "%"},
      {"measurement": "remaining activity at 10 µM", "setting": "[7]; [17]", "result": 72.3, "unit": "%"},
      {"measurement": "remaining activity at 10 µM", "setting": "[8]; [17]", "result": 56, "unit": "%"},
      {"measurement": "remaining activity at 10 µM", "setting": "[9]; [17]", "result": 24.3, "unit": "%"},
      {"measurement": "IC50", "setting": "[10]", "result": "> 10", "unit": "µM"},
      {"measurement": "IC50", "setting": "[11]", "result": "> 10", "unit": "µM"},
      {"measurement": "IC50", "setting": "[12]", "result": "> 10", "unit": "µM"},
      {"measurement": "IC50", "setting": "[13]", "result": "> 10", "unit": "µM"}
    ]},
    {"smiles": "COc1cc(F)ccc1-c1cc(Nc2cc(CS(C)(=N)=O)ccn2)ncc1F", "note": "(stereo not shown) [BAY-1251152]", "values": [
      {"measurement": "remaining activity at 10 µM", "setting": "[1]; [18]", "result": 89.7, "unit": "%"},
      {"measurement": "remaining activity at 10 µM", "setting": "[2]; [18]", "result": 16.9, "unit": "%"},
      {"measurement": "remaining activity at 10 µM", "setting": "[3]; [18]", "result": 25.7, "unit": "%"},
      {"measurement": "remaining activity at 10 µM", "setting": "[4]; [18]", "result": 34.1, "unit": "%"},
      {"measurement": "remaining activity at 10 µM", "setting": "[5]; [18]", "result": 82.1, "unit": "%"},
      {"measurement": "remaining activity at 10 µM", "setting": "[6]; [18]", "result": 110, "unit": "%"},
      {"measurement": "remaining activity at 10 µM", "setting": "[7]; [18]", "result": 38.5, "unit": "%"},
      {"measurement": "remaining activity at 10 µM", "setting": "[8]; [18]", "result": 48.9, "unit": "%"},
      {"measurement": "remaining activity at 10 µM", "setting": "[9]; [18]", "result": 102, "unit": "%"},
      {"measurement": "IC50", "setting": "[14]", "result": "> 10", "unit": "µM"},
      {"measurement": "IC50", "setting": "[15]", "result": 1.09, "unit": "µM"},
      {"measurement": "IC50", "setting": "[16]", "result": "> 10", "unit": "µM"}
    ]}
  ]
}
